Measured values as given in PubChem BioAssay AID378.

Target: L-aminoadipate-semialdehyde dehydrogenase-phosphopantetheinyl transferase (Homo sapiens) (UniProt Q9NRN7)
Assay: PubChem AID 378
Details: purified protein DSF, SYPRO orange Tm shift, at 10 µM, protein 2 µM, pH 5.5, hits give high values
[1] = buffer 10 mM NaHPO4, with 150 mM NaCl, 2 mM MgCl2
[2] = buffer 10 mM NaH2PO4, NaCl 150 mM, MgCl2 2000 µM

Sequence of L-aminoadipate-semialdehyde dehydrogenase-phosphopantetheinyl transferase (Homo sapiens) (Q9NRN7 whole entry, looked up): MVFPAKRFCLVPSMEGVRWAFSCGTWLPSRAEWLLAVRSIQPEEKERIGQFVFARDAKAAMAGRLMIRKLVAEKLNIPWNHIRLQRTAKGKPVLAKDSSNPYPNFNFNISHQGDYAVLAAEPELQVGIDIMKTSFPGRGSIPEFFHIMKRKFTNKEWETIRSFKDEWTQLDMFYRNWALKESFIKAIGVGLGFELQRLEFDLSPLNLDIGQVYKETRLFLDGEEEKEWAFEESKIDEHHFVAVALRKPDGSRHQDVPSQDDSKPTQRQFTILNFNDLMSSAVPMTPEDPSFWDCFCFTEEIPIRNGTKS

| SMILES | Tm shift [1] | Tm shift [2] |
| --- | --- | --- |
| O=P(O)(O)C(O)(Cn1ccnc1)P(=O)(O)O | 5.2 Celsius |  |
| CC(C)(COP(=O)(O)OP(=O)(O)OCC1OC(n2cnc3c(N)ncnc32)C(O)C1OP(=O)(O)O)C(O)C(=O)NCCC(=O)NCCS (centres undefined) |  | 2.9 Celsius |
| CC(O)CC(=O)SCCNC(=O)CCNC(=O)C(O)C(C)(C)COP(=O)(O)OP(=O)(O)OCC1OC(n2cnc3c(N)ncnc32)C(O)C1OP(=O)(O)O (centres undefined) |  | 3.1 Celsius |
| O=[P+](O)C(O)(Cc1cccnc1)P(=O)(O)O (centres undefined) | 4.4 Celsius |  |
